Reference: patent US20180042982A1, “Methods for Treating HCV” (priority 2013, published 2018)

Assays:
HCV replicon Genotype 3a = test: HCV subgenomic stable replicon cell culture assay, genotype 3a; type: cell-based; conditions: Hepatitis C virus, read-out: Mean EC50, nM, ± Std. Dev.
Text: (§1) However, these variants had in vitro replication capacities of only 1.5% and 9.2% that of their corresponding wild-type replicons.

[1] = system: replicon containing GT3a NS3 protease; test: Resistant colony selection in replicon containing GT3a NS3 protease; type: cell-based, Hepatitis C virus; conditions: concentrations ≧100-fold over its EC50 value
Text: as §1

[2] = system: resistance-associated variants in GT 1a (H77) replicon; test: Activity against resistance-associated variants, GT 1a; type: cell-based, Hepatitis C virus
Text: as §1

[3] = system: resistance-associated variants in GT 1b (Con-1) replicon; test: Activity against resistance-associated variants, GT 1b; type: cell-based, Hepatitis C virus
Text: as §1

HCV = test: Anti-HCV efficacy of Compound 1 at different doses; design: species or system Hepatitis C virus; conditions: 200-300 mg Compound 1 compared with 400 mg Compound 1

CC(C)(C)[C@@H]1NC(=O)O[C@@H]2CCC[C@H]2OC/C=C/C(F)(F)c2nc3ccccc3nc2O[C@@H]2C[C@@H](C(=O)N[C@]3(C(=O)NS(=O)(=O)C4(C)CC4)C[C@H]3C(F)F)N(C2)C1=O [Compound 1]
EC50 (HCV replicon Genotype 3a): 1.6 ± 0.49 nM | resistant colony selection [1]: selected very few colonies | activity against common variants at NS3 amino acid positions 155 and 168 ([2]; GT1a variants conferring resistance to other HCV protease inhibitors): retained its activity | activity against NS5A inhibitor and NS5B inhibitor resistance-associated variants ([2]; M28T, M28V, Q30D, Q30R, Y93C, Y93H, Y93N, L31V+Y93H, C316Y, M414T, Y448C, Y448H, S556G and S559G in GT 1a): potent activity | inhibitory activity against NS3 resistance-associated variants ([2]; V36M, R155K, D168A and D168V in GT 1a (H77)): nearly equivalent to that against wild-type HCV replicon | activity against common variants at NS3 amino acid positions 155 and 168 ([3]; GT1b variants conferring resistance to other HCV protease inhibitors): retained its activity | activity against NS5A inhibitor and NS5B inhibitor resistance-associated variants ([3]; L28T, Y93H, S282T, C316Y, Y448H and S556G in GT 1b): potent activity | inhibitory activity against NS3 resistance-associated variants ([3]; T54A, R155K, D168V and V170A in GT 1b (Con-1)): nearly equivalent to that against wild-type HCV replicon | anti-HCV efficacy of 200-300 mg versus 400 mg (HCV): comparable anti-HCV efficacy
